Data reported in US8178570B2, “Tie-2 modulators and methods of use” (Exelixis, Inc., priority 2003, dated 2012).

target: Tie-2 (Homo sapiens, UniProt Q02763); test: Tie-2 tyrosine kinase activity: kinase-dependent ATP consumption (pEY substrate, luciferase/luciferin chemiluminescence) or 33P-ATP incorporation into substrate; type: biochemical; details: Tie-2 (human enzyme) inhibition, Table 2, class symbols A-D
Description: One measure of inhibition is Ki. […] The Ki for a compound is determined from the IC50 based on three assumptions. First, only one compound molecule binds to the enzyme and there is no cooperativity. […] Third, the enzymatic rate of the enzyme-inhibitor complex is zero. The rate (i.e., compound concentration) data are fitted to the equation:
[formula] where V is the observed rate, Vmax, is the rate of the free enzyme, I0 is the inhibitor concentration, E0 is the enzyme concentration, and Kd is the dissociation constant of the enzyme-inhibitor complex.
Tyrosine kinase activity is determined by 1) measurement of kinase-dependent ATP consumption by in the presence of a generic substrate such as polyglutamine, tyrosine (pEY), by luciferase/luciferin-mediated chemiluminescence or; 2) incorporation of radioactive phosphate derived from ^33P-ATP into a generic substrate which has been absorbed onto the well surface of polystyrene microtiter plates. Phosphorylated substrate products are quantified by scintillation spectrometry.
Inhibition is indicated as IC50 with following key: A=IC50 less than 50 nM, B=IC50 greater than 50 nM, but less than or equal to 1000 nM, C=IC50 greater than 1000 nM, but less than 10,000 nM, and D=IC50 10,000 nM or greater. The abbreviation for human enzyme, Tie-2, is defined as tyrosine kinase with immunoglobulin and EGF repeats.

Chain of Tie-2 (Q02763 23-1124): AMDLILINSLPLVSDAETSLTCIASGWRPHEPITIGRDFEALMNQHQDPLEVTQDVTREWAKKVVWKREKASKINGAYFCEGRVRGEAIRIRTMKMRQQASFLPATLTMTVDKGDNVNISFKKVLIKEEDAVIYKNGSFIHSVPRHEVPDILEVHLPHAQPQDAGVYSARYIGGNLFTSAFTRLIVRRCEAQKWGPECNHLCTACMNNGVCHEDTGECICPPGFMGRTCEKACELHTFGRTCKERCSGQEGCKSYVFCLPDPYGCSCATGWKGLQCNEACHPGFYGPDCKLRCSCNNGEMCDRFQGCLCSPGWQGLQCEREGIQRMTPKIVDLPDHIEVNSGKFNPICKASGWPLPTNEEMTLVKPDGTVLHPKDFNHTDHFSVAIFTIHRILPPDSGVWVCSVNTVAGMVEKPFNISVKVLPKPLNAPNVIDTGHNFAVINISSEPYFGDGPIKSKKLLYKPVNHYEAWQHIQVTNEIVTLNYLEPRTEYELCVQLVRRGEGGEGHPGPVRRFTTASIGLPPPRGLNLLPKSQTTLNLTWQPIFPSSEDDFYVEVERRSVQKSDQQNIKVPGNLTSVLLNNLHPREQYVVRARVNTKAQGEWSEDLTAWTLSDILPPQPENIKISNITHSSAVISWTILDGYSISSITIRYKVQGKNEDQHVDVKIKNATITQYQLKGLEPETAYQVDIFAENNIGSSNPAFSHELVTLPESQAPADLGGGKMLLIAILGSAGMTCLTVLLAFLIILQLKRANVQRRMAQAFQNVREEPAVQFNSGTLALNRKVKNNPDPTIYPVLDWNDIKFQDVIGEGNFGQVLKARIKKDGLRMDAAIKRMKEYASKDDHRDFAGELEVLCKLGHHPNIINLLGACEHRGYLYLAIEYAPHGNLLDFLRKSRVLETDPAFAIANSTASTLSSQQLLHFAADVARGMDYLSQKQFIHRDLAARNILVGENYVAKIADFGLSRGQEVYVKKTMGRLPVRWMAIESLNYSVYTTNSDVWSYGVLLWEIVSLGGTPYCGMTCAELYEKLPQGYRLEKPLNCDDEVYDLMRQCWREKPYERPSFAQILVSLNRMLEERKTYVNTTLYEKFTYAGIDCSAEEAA

Compound	IC50 [µM]
COc1ccc(-c2nc(-c3ccccc3)nn2CC(=O)NC2CCCC2)cc1Cl [Entry 33, 2-{5-[3-chloro-4-(methyloxy)phenyl]-3-phenyl-1H-1,2,4-triazol-1-yl}-N-cyclopentylacetamide]	≥ 10
COc1ccc(-c2nc(-c3ccncc3)nn2CCNC(=O)Cc2cccc3ccccc23)cc1Cl [Entry 34, N-(2-{5-[3-chloro-4-(methyloxy)phenyl]-3-pyridin-4-yl-1H-1,2,4-triazol-1-yl}ethyl)-2-naphthalen-1-ylacetamide]	1 to 10
COc1ccc(-c2nc(-c3ccncc3)n(CCN(C(=O)Cc3cccc4ccccc34)C(C)C)n2)cc1Cl [Entry 35, N-(2-{3-[3-chloro-4-(methyloxy)phenyl]-5-pyridin-4-yl-1H-1,2,4-triazol-1-yl}ethyl)-N-(1-methylethyl)-2-naphthalen-1-ylacetamide]	≥ 10
COc1ccc(-c2nc(-c3ccncc3)n(CCN(C(=O)Cc3cccc4ccccc34)C3CCCC3)n2)cc1 [Entry 40, N-cyclopentyl-N-(2-{3-[4-(methyloxy)phenyl]-5-pyridin-4-yl-1H-1,2,4-triazol-1-yl}ethyl)-2-naphthalen-1-ylacetamide]	1 to 10
O=C(Cc1cccc2ccccc12)N(CCn1nc(-c2cccc(C(F)(F)F)c2)nc1-c1ccncc1)C1CCCC1 [Entry 46, N-cyclopentyl-2-naphthalen-1-yl-N-(2-{5-pyridin-4-yl-3-[3-(trifluoromethyl)phenyl]-1H-1,2,4-triazol-1-yl}ethyl)acetamide]	≥ 10
COc1ccc(-c2nc(-c3ccncc3)nn2CCN(C(=O)Cc2ccc3ccccc3c2)C2CCCC2)cc1Cl [Entry 48, N-(2-{5-[3-chloro-4-(methyloxy)phenyl]-3-pyridin-4-yl-1H-1,2,4-triazol-1-yl}ethyl)-N-cyclopentyl-2-naphthalen-2-ylacetamide]	≥ 10
O=C(Cc1cccc2ccccc12)N(CCn1nc(-c2ccccc2)nc1-c1ccncc1)C1CCCC1 [Entry 51, N-cyclopentyl-2-naphthalen-1-yl-N-[2-(3-phenyl-5-pyridin-4-yl-1H-1,2,4-triazol-1-yl)ethyl]acetamide]	1 to 10
O=C(Cc1cccc2ccccc12)N(CCc1nc(-c2ccncc2)no1)C1CCCC1 [Entry 52, N-cyclopentyl-2-naphthalen-1-yl-N-[2-(3-pyridin-4-yl-1,2,4-oxadiazol-5-yl)ethyl]acetamide]	0.05 to 1
COc1ccc(-c2nc(-c3ccnc(Cl)c3)nn2CCN(C(=O)Cc2cccc3ccccc23)C2CCCC2)cc1Cl [Entry 53, N-{2-[5-[3-chloro-4-(methyloxy)phenyl]-3-(2-chloropyridin-4-yl)-1H-1,2,4-triazol-1-yl]ethyl}-N-cyclopentyl-2-naphthalen-1-ylacetamide]	≥ 10
COc1ccc(-c2nc(-c3ccncc3)[nH]c2CCN(C(=O)Cc2cccc3ccccc23)C2CCCC2)cc1 [Entry 54, N-cyclopentyl-N-(2-{4-[4-(methyloxy)phenyl]-2-pyridin-4-yl-1H-imidazol-5-yl}ethyl)-2-naphthalen-1-ylacetamide]	0.05 to 1
COc1ccc(-c2nc(-c3ccncc3)n(CCN(C(=O)Nc3cccc4ccccc34)C3CCCC3)n2)cc1Cl [Entry 55, N-(2-{3-[3-chloro-4-(methyloxy)phenyl]-5-pyridin-4-yl-1H-1,2,4-triazol-1-yl}ethyl)-N-cyclopentyl-N′-naphthalen-1-ylurea]	≥ 10
O=C(Cc1cccc2ccccc12)N(CCn1nc(-c2cccc(F)c2)nc1-c1ccncc1)C1CCCC1 [Entry 57, N-cyclopentyl-N-{2-[3-(3-fluorophenyl)-5-pyridin-4-yl-1H-1,2,4-triazol-1-yl]ethyl}-2-naphthalen-1-ylacetamide]	1 to 10
O=C(Cc1cccc2ccccc12)N(CCn1nc(-c2cccc(Cl)c2)nc1-c1ccncc1)C1CCCC1 [Entry 59, N-{2-[3-(3-chlorophenyl)-5-pyridin-4-yl-1H-1,2,4-triazol-1-yl]ethyl}-N-cyclopentyl-2-naphthalen-1-ylacetamide]	1 to 10
O=C(Cc1cccc2ccccc12)N(CCn1nc(-c2ccccc2Cl)nc1-c1ccncc1)C1CCCC1 [Entry 62, N-{2-[3-(2-chlorophenyl)-5-pyridin-4-yl-1H-1,2,4-triazol-1-yl]ethyl}-N-cyclopentyl-2-naphthalen-1-ylacetamide]	1 to 10

Continued, values first:

IC50 [µM]	Compound
< 0.05	COc1ccc(-c2nc(-c3ccncc3)nn2CCN(C(=O)Cc2cccc3ccccc23)C2CCCCC2)cc1Cl [Entry 36, N-(2-{5-[3-chloro-4-(methyloxy)phenyl]-3-pyridin-4-yl-1H-1,2,4-triazol-1-yl}ethyl)-N-cyclohexyl-2-naphthalen-1-ylacetamide]
0.05 to 1	COc1ccc(-c2nc(-c3ccncc3)n(CCN(C(=O)Cc3cccc4ccccc34)C3CCCCC3)n2)cc1Cl [Entry 37, N-(2-{3-[3-chloro-4-(methyloxy)phenyl]-5-pyridin-4-yl-1H-1,2,4-triazol-1-yl}ethyl)-N-cyclohexyl-2-naphthalen-1-ylacetamide]
0.05 to 1	COc1ccc(-c2nc(-c3ccncc3)n(CCN(C(=O)Cc3cccc4ccccc34)C3CC3)n2)cc1Cl [Entry 38, N-(2-{3-[3-chloro-4-(methyloxy)phenyl]-5-pyridin-4-yl-1H-1,2,4-triazol-1-yl}ethyl)-N-cyclopropyl-2-naphthalen-1-ylacetamide]
< 0.05	COc1ccc(-c2nc(-c3ccncc3)nn2CCN(C(=O)Cc2cccc3ccccc23)C2CCCC2)cc1 [Entry 39, N-cyclopentyl-N-(2-{5-[4-(methyloxy)phenyl]-3-pyridin-4-yl-1H-1,2,4-triazol-1-yl}ethyl)-2-naphthalen-1-ylacetamide]
< 0.05	COc1ccc(-c2nc(-c3ccncc3)nn2CCN(C(=O)Cc2cccc3ccccc23)C2CCCC2)cc1OC [Entry 41, N-(2-{5-[3,4-bis(methyloxy)phenyl]-3-pyridin-4-yl-1H-1,2,4-triazol-1-yl}ethyl)-N-cyclopentyl-2-naphthalen-1-ylacetamide]
0.05 to 1	COc1ccc(-c2nc(-c3ccncc3)n(CCN(C(=O)Cc3cccc4ccccc34)C3CCCC3)n2)cc1OC [Entry 42, N-(2-{3-[3,4-bis(methyloxy)phenyl]-5-pyridin-4-yl-1H-1,2,4-triazol-1-yl}ethyl)-N-cyclopentyl-2-naphthalen-1-ylacetamide]
< 0.05	Cc1nc(-c2ccncc2)nn1CCN(C(=O)Cc1cccc2ccccc12)C1CCCC1 [Entry 43, N-cyclopentyl-N-[2-(5-methyl-3-pyridin-4-yl-1H-1,2,4,-triazol-1-yl)ethyl]-2-naphthalen-1-ylacetamide]
< 0.05	O=C(Cc1cccc2ccccc12)N(CCn1cnc(-c2ccncc2)n1)C1CCCC1 [Entry 44, N-cyclopentyl-2-naphthalen-1-yl-N-[2-(3-pyridin-4-yl-1H-1,2,4-triazol-1-yl)ethyl]acetamide]
< 0.05	O=C(Cc1cccc2ccccc12)N(CCn1nc(-c2ccncc2)nc1-c1cccc(C(F)(F)F)c1)C1CCCC1 [Entry 45, N-cyclopentyl-2-naphthalen-1-yl-N-(2-{3-pyridin-4-yl-5-[3-(trifluoromethyl)phenyl]-1H-1,2,4-triazol-1-yl}ethyl)acetamide]
< 0.05	O=C(Cc1cccc2ccccc12)N(CCn1nc(-c2ccncc2)nc1-c1cc(Cl)cc(Cl)c1)C1CCCC1 [Entry 47, N-cyclopentyl-N-{2-[5-(3,5-dichlorophenyl)-3-pyridin-4-yl-1H-1,2,4-triazol-1-yl]ethyl}-2-naphthalen-1-ylacetamide]
< 0.05	O=C(Cc1cccc2ccccc12)N(CCc1n[nH]c(-c2ccncc2)n1)C1CCCC1 [Entry 49, N-cyclopentyl-2-naphthalen-1-yl-N-[2-(5-pyridin-4-yl-1H-1,2,4-triazol-3-yl)ethyl]acetamide]
< 0.05	O=C(Cc1cccc2ccccc12)N(CCn1nc(-c2ccncc2)nc1-c1ccccc1)C1CCCC1 [Entry 50, N-cyclopentyl-2-naphthalen-1-yl-N-[2-(5-phenyl-3-pyridin-4-yl-1H-1,2,4-triazol-1-yl)ethyl]acetamide]
< 0.05	O=C(Cc1cccc2ccccc12)N(CCn1nc(-c2ccncc2)nc1-c1cccc(F)c1)C1CCCC1 [Entry 56, N-cyclopentyl-N-{2-[5-(3-fluorophenyl)-3-pyridin-4-yl-1H-1,2,4-triazol-1-yl]ethyl}-2-naphthalen-1-ylacetamide]
< 0.05	O=C(Cc1cccc2ccccc12)N(CCn1nc(-c2ccncc2)nc1-c1cccc(Cl)c1)C1CCCC1 [Entry 58, N-{2-[5-(3-chlorophenyl)-3-pyridin-4-yl-1H-1,2,4-triazol-1-yl]ethyl}-N-cyclopentyl-2-naphthalen-1-ylacetamide]
< 0.05	O=C(Cc1cccc2ccccc12)N(CCn1nc(-c2ccncc2)nc1C1CCNCC1)C1CCCC1 [Entry 60, N-cyclopentyl-2-naphthalen-1-yl-N-[2-(5-piperidin-4-yl-3-pyridin-4-yl-1H-1,2,4-triazol-1-yl)ethyl]acetamide]
< 0.05	O=C(Cc1cccc2ccccc12)N(CCn1nc(-c2ccncc2)nc1-c1ccccc1Cl)C1CCCC1 [Entry 61, N-{2-[5-(2-chlorophenyl)-3-pyridin-4-yl-1H-1,2,4-triazol-1-yl]ethyl}-N-cyclopentyl-2-naphthalen-1-ylacetamide]
